Like-named read-outs stand apart in the source and are kept apart here.
Experiments:
[1] = molecular target: T1, reuptake of dopamine (DA) in synaptosomes (Rattus norvegicus, UniProt P23977); experiment: Inhibition of dopamine (DA) reuptake in synaptosomes; format: biochemical; details: 3H-DA, read-out: DA-uptake IC50
T1 construct: in synaptosomes as described in WO 97/16451; from tissue
Text: (§1) Compounds of the invention may be tested for their ability to inhibit reuptake of the monoamines dopamine, noradrenaline and serotonin in synaptosomes e.g. such as described in WO 97/30997. Based on the balanced activity observed in these tests the compound of the invention is considered useful for the treatment, prevention or alleviation of a disease or a disorder or a condition of a mammal, including a human, which disease, disorder or condition is responsive to inhibition of monoamine neurotransmitter re-uptake in the central nervous system.
(§2) A number of compounds were tested for their ability to inhibit the reuptake of the monoamine neurotransmitters dopamine (DA) noradrenaline (NA) and serotonine (5-HT) in synaptosomes as described in WO 97/16451.
(§3) The test values are given as IC50 (the concentration (μM) of the test substance which inhibits the specific binding of ^3H-DA, ^3H-NA, or ^3H-5-HT by 50%).

[2] = molecular target: T2, reuptake of noradrenaline (NA) in synaptosomes (Rattus norvegicus, UniProt Q9WTR4); experiment: Inhibition of noradrenaline (NA) reuptake in synaptosomes; format: biochemical; details: 3H-NA, read-out: NA-uptake IC50
T2 construct: in synaptosomes as described in WO 97/16451; from tissue
Text: as §1, §2, §3

[3] = molecular target: T3, reuptake of serotonine (5-HT) in synaptosomes (Rattus norvegicus, UniProt P31652); experiment: Inhibition of serotonine (5-HT) reuptake in synaptosomes; format: biochemical
T3 construct: in synaptosomes as described in WO 97/16451; from tissue
Text: as §1, §2, §3

[4] = synaptosomes, 3H-5-HT, read-out: 5-HT-uptake IC50

T2 sequence (Q9WTR4 1-597): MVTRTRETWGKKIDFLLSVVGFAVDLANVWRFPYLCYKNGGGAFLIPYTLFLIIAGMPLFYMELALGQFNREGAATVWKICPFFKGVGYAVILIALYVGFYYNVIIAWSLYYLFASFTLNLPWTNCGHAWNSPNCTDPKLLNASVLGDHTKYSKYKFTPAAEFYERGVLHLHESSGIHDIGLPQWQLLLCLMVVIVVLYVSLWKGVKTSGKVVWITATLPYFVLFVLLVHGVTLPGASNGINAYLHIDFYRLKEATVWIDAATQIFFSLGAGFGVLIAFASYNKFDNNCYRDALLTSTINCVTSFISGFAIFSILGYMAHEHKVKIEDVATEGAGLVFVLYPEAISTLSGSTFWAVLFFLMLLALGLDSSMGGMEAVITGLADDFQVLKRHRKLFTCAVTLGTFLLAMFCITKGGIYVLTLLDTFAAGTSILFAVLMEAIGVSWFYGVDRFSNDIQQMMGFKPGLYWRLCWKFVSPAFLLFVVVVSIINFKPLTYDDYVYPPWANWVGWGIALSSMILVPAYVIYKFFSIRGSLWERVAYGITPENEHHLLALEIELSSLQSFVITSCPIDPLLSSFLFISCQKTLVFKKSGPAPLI
T1 sequence (P23977 whole entry): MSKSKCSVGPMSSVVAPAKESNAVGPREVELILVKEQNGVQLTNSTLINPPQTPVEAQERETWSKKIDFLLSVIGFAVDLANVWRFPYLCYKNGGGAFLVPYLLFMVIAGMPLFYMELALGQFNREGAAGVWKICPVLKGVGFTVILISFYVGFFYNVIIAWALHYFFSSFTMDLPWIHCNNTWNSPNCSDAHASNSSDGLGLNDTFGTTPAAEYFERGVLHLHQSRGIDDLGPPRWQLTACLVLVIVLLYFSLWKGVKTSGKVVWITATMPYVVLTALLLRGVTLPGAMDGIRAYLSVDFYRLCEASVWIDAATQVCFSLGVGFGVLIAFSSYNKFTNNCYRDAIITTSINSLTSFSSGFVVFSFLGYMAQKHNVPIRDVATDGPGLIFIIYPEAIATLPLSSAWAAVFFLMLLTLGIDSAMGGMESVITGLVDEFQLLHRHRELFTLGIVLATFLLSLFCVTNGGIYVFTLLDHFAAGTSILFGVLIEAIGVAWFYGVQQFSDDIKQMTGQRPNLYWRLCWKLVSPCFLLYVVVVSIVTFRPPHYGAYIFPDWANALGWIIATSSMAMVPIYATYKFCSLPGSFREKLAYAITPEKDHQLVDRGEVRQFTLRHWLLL
T3 sequence (P31652 whole entry): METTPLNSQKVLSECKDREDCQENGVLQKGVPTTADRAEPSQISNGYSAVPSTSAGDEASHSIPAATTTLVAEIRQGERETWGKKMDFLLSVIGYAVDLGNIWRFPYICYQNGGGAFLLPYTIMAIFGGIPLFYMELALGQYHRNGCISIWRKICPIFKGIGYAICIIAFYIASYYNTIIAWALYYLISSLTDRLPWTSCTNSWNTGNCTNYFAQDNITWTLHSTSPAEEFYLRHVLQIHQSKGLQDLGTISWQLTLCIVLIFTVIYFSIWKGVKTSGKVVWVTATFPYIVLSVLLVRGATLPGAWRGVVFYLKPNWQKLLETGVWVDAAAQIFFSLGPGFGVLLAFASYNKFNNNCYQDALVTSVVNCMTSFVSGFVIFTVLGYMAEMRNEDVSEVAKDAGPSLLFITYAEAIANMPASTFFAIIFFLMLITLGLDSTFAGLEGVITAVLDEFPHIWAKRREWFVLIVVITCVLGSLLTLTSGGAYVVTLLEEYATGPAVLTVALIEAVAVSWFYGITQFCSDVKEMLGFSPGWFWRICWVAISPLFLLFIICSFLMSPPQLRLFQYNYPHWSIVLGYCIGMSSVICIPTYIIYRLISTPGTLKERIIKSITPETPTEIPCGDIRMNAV

| melting point | IC50 [1] | IC50 [2] | IC50 [3, 4] | Compound | IC50 [3] |
| --- | --- | --- | --- | --- | --- |
| 107.3 to 110.2 °C | 1.2 µM | 0.58 µM | 0.02 µM | C1=C(c2cc3ccccc3s2)CCC2(C1)CCNCC2 [2nd compound of method A, 9-Benzo[b]thiophen-2-yl-3-aza-spiro[5.5]undec-8-ene] | – |
| 146.9 to 149.5 °C | 0.038 µM | 0.12 µM | 0.016 µM | COc1ccc2cc(C3=CCC4(CCNCC4)CC3)ccc2c1 [4th compound of method A, 9-(6-Methoxy-naphthalen-2-yl)-3-aza-spiro[5.5]undec-8-ene] | – |
| 182 to 185 °C | – | – | – | COc1cc(C2=CCC3(CCNCC3)CC2)ccc1Cl [9-(4-Chloro-3-methoxy-phenyl)-3-aza-spiro[5.5]undec-8-ene] | – |
| 146.9 to 149.5 °C | – | – | – | COc1ccc2cc(C3=CCC4(CC3)CCN(C)CC4)ccc2c1 [9-(6-Methoxy-naphthalen-2-yl)-3-methyl-3-aza-spiro[5.5]undec-8-ene] | – |
| 89.7 to 91.2 °C | – | – | – | CN1CCC2(CC=C(c3cc4ccccc4s3)CC2)CC1 [9-Benzo[b]thiophen-2-yl-3-methyl-3-aza-spiro[5.5]undec-8-ene] | – |
| 137.1 to 141.3 °C | – | – | – | C1=C(c2ccc3ccccc3c2)CCC2(C1)CCNCC2 [9-Naphthalen-2-yl-3-aza-spiro[5.5]undec-8-ene] | – |

Second part, the compound before the results:

| Compound | melting point | IC50 [1] | IC50 [2] | IC50 [3, 4] | IC50 [3] |
| --- | --- | --- | --- | --- | --- |
| C1=C(c2cc3ccccc3o2)CCC2(C1)CCNCC2.O=C(O)C(F)(F)F | 215.7 to 217.3 °C | – | – | – | – |
| CN1CCC2(CC=C(c3cc4ccccc4o3)CC2)CC1.O=C(O)/C=C/C(=O)O | 224.2 to 226.1 °C | – | – | – | – |
| Clc1ccc(C2=CCC3(CCNCC3)CC2)cc1 | 104.2 to 107.1 °C | – | – | – | – |
| Brc1cccc(C2=CCC3(CCNCC3)CC2)n1 [2nd last compound of method A, 9-(6-Bromo-pyridin-2-yl)-3-aza-spiro[5.5]undec-8-ene] | 161.3 to 162.8 °C | 2 µM | 1 µM | – | 0.018 µM |
